The text below walks through data of publication PMC4126670 (ChemMedChem, 2014).

Converted amounts (≈) assume the structure as drawn. “Also recorded” adds a separate entry of the source. Like-named read-outs stand apart in the source and are kept apart here.

By MIC is commonly meant the lowest concentration that inhibits growth of the organism. Lower therefore signals a more susceptible organism. Usually Ki stands for the dissociation constant of the complex between target and ligand, obtained from inhibition or displacement. The IC50 is the concentration needed to halve the response being measured. A high value points to lower potency.

The test system of experiment [1] is M. tuberculosis Erdman. The conditions noted are these: mice, bacterial load in lung or spleen; cited from earlier work.
Experiment [2] concerns M. tuberculosis. Kind of experiment: Antibacterial growth assay. The experiment is classed as cell-based, Mycobacterium tuberculosis.
In experiment [3] the test system is M. tuberculosis. The conditions noted are these: cited from earlier work.
For experiment [4], the target named is T1, wild-type InhA (Mycobacterium tuberculosis, UniProt P9WGR1). Kind of experiment: InhA progress curve assays. In kind it is biochemical. Particulars: for Slow-onset: Yes/No.
T1 sequence (P9WGR1 whole entry, looked up): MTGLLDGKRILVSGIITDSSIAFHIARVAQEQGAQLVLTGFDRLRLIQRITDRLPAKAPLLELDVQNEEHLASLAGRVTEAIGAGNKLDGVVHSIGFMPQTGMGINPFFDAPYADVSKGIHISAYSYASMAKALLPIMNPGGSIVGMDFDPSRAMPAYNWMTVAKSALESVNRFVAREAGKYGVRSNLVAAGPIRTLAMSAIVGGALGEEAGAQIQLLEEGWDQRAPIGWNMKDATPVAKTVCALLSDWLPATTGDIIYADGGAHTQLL
Experiment [5] has as its target T1, wild-type InhA. The conditions noted are these: cited from earlier work.
Experiment [6] concerns M. tuberculosis Erdman. Kind of experiment: Rapid M. tuberculosis animal model of efficacy. Particulars: for reduction of bacterial counts in the spleen: GKO C57BL/6 mice, IP, 10 days of treatment, compared to untreated controls; for efficacy in rapid murine model of TB infection: mice, IP delivery, bacterial CFUs in spleen. The experiment is classed as in vivo, Mycobacterium tuberculosis.

The target of experiment [7] is T1, wild-type InhA. Kind of experiment: InhA enzyme inhibition, steady state kinetics. In kind it is biochemical.
Setting [8] is: Table 1, lowest concentration inhibiting visible growth.
[9] abbreviates: Table 1, slow-onset (time-dependent) inhibition of InhA.

With `CCCCCCc1ccc(Oc2ccccc2)c(O)c1` [PT004], in experiment [1], the “efficacy in rapid murine model of TB infection” value (“efficacy in rapid murine model” below) was “failed to observe a significant reduction in bacterial load; also recorded: did not show efficacy; also recorded: did not significantly reduce the bacterial load; also recorded: does not demonstrate efficacy; also recorded: lack of efficacy”. Moreover, the MIC in experiment [2] (setting [8]) came to 2.1 µg/mL (≈ 7.77 µM); in experiment [2] (Table 2), 2.1 ± 0.9 µg/mL (≈ 7.77 µM). For the same compound, in experiment [3], the “bacterial load in rapid macrophage model of TB infection” value is recorded as “had efficacy in a macrophage TB assay; also recorded: reduced the bacterial load”.
On to `CCCCCCc1ccc(Oc2ccccc2[N+](=O)[O-])c(O)c1` [PT010], for which the MIC in experiment [2] (setting [8]) is 12.50 µg/mL (≈ 39.6 µM).
The same measure, in the same setting: for `CCCCCCc1ccc(Oc2ccccc2N)c(O)c1` [PT013] the value was 3.13 µg/mL (≈ 11 µM).
With `CCCCCCc1ccc(Oc2ccccc2C)c(O)c1` [PT070], the MIC in experiment [2] (setting [8]) amounted to 3.125 µg/mL (≈ 11 µM). In experiment [2] (Table 2), this compound gave an MIC of 3.125 µg/mL (≈ 11 µM). In experiment [4] (Table 1), the Ki worked out at 0.044 ± 0.005 nM and the “residence time” value was determined as 24 ± 2 min. In addition, the Slow-onset entry in experiment [4] (setting [9]) is “slow onset and Yes”. Besides, the “residence time on InhA” value in experiment [5] was 24 min. Further, in experiment [6], the “reduction of bacterial counts in the spleen” value is listed as 0.57 ± 0.26 log10 and the “efficacy in rapid murine model” value is reported as “demonstrated efficacy”. The compound further yielded an IC50 in experiment [7] (Table 1, enzyme concentration 100 nM) of 50.7 ± 4 nM.
As for `CCCCCCc1ccc(Oc2ccccn2)c(O)c1` [PT077], the MIC in experiment [2] (Table 3) was determined as 3.13 µg/mL (≈ 11.5 µM).
For the compound `CCCCCCc1ccc(Oc2ccccc2Cl)c(O)c1` [PT091, 2-(2-Chlorophenoxy)-5-hexylphenol], the MIC in experiment [2] (Mycobacterium tuberculosis) came out at 1.56 µg/mL (≈ 5.12 µM). Besides, the residence time in experiment [4] worked out at 21 ± 3 min. The Slow-onset result in experiment [4] (setting [9]) was “slow onset and Yes”. Also, in experiment [6], the “reduction of bacterial counts in the spleen” value worked out at 0.69 ± 0.22 log10 and the “efficacy in rapid murine model” value is listed as “demonstrated efficacy”.
Turning to `CCCCCCc1ccc(Oc2ccccc2Br)c(O)c1` [PT092, 2-(2-Bromophenoxy)-5-hexylphenol], the minimal inhibitory concentration (MIC) in experiment [2] (Mycobacterium tuberculosis) is 3.12 µg/mL (≈ 8.95 µM). The compound further yielded a residence time in experiment [4] of 30 ± 3 min. Also, the Slow-onset entry in experiment [4] (setting [9]) is on record as “Yes”.
`CCCCCCc1ccc(Oc2ccccc2C(F)(F)F)c(O)c1` [PT095, 5-Hexyl-2-(2-(trifluoromethyl)phenoxy)phenol] came in with an MIC in experiment [2] (Mycobacterium tuberculosis) of 50 µg/mL (≈ 148 µM). Further, in experiment [4] (setting [9]), the Slow-onset result was “No”. In experiment [7], this compound returned an IC50 of 29.7 ± 1.2 nM.
With `CCCCCCc1ccc(Oc2ccccc2I)c(O)c1` [PT096, 5-Hexyl-2-(2-iodophenoxy)phenol], it took 25 µg/mL (≈ 63.1 µM) to inhibit growth in experiment [2] (Mycobacterium tuberculosis) (MIC). Affinity in experiment [4] was put at a Ki of 3.72 ± 5.13 nM. In experiment [4] (setting [9]), the Slow-onset entry is given as “No”. Moreover, in experiment [7], it took 44.6 ± 7.5 nM to reach half-maximal inhibition (IC50).
`CCCCCCc1ccc(Oc2ccc([N+](=O)[O-])cc2C)c(O)c1` [PT107, 5-Hexyl-2-(2-methyl-4-nitrophenoxy)phenol]: the MIC in experiment [2] (Mycobacterium tuberculosis) worked out at 6.25 µg/mL (≈ 19 µM). Also, in experiment [4], the affinity, expressed as Ki, was 0.13 ± 0.03 nM. In addition, half-maximal inhibition in experiment [7] (IC50) required 50 ± 5 nM.
For the compound `CCCCCCc1ccc(Oc2c(C)cccc2C)c(O)c1` [PT108, 2-(2,6-Dimethylphenoxy)-5-hexylphenol], the MIC in experiment [2] (Mycobacterium tuberculosis) was 100 µg/mL (≈ 335 µM). The same compound displayed an IC50 in experiment [7] of 1570 ± 200 nM.
The compound `CCCCCCc1ccc(Oc2c(Cl)cccc2Cl)c(O)c1` [PT109, 2-(2,6-Dichlorophenoxy)-5-hexylphenol] registered an MIC in experiment [2] (Mycobacterium tuberculosis) of 25 µg/mL (≈ 73.7 µM). In addition, the IC50 in experiment [7] was 86 ± 6 nM.
On to `CCCCCCc1ccc(Oc2c(C)cccc2N)c(O)c1` [PT110, 2-(2-Amino-6-methylphenoxy)-5-hexylphenol], for which the values for the MIC in experiment [2] (Mycobacterium tuberculosis) and in experiment [2] (Table 2) were above 100 µg/mL and “total loss”, respectively.
Consider `CCCCCCc1ccc(Oc2c(F)cccc2C#N)c(O)c1` [PT111, 3-Fluoro-2-(4-hexyl-2-hydroxyphenoxy) benzonitrile], for which the MIC in experiment [2] (Mycobacterium tuberculosis) worked out at 25 µg/mL (≈ 79.8 µM). In experiment [7], this compound came in with an IC50 of 100 ± 9 nM.
`CCCCCCc1ccc(Oc2cnccc2N)c(O)c1` [PT112, 2-((4-Aminopyridin-3-yl)oxy)-5-hexylphenol] showed a minimum inhibitory concentration (MIC) in experiment [2] (Mycobacterium tuberculosis) of 50 µg/mL (≈ 175 µM). Also, in experiment [7], the IC50 was determined as 69000 ± 700 nM. Besides, the “fold increase in IC50 value, amino group compared to fluorine group” value in experiment [7] (PT013 vs. PT113, PT112 vs. PT161) is on record as 1700 fold. Further, the “fold difference in IC50 value between PT134 and PT112” value in experiment [7] (PT134 (2'- and 4'-N) vs 4'-N analogue PT112) is 300 fold.
Consider `CCCCCCc1ccc(Oc2ccccc2F)c(O)c1` [PT113, 2-(2-Fluorophenoxy)-5-hexylphenol], for which, in experiment [2] (Mycobacterium tuberculosis), the MIC was determined as 1.56 µg/mL (≈ 5.41 µM). In experiment [4], this compound showed a Ki of 0.09 ± 0.02 nM and a residence time of 9 ± 3 min. Besides, the Slow-onset entry in experiment [4] (setting [9]) is “Yes”. The same compound displayed an IC50 in experiment [7] of 12.1 ± 4.8 nM.
In experiment [2] (Mycobacterium tuberculosis), `CCCCCCc1ccc(Oc2ccccc2O)c(O)c1` [PT114, 5-Hexyl-2-(2-hydroxyphenoxy)phenol] showed an MIC of 12.5 µg/mL (≈ 43.6 µM). The compound also came in with a Ki in experiment [4] of 15.9 ± 3.7 nM. Moreover, the Slow-onset entry in experiment [4] (setting [9]) is given as “No”. The compound further had an IC50 in experiment [7] of 48 ± 3 nM.
In experiment [2] (Mycobacterium tuberculosis), `CCCCCCc1ccc(Oc2cnccc2C#N)c(O)c1` [PT115, 3-(4-Hexyl-2-hydroxyphenoxy)isonicotinonitrile] displayed an MIC of 12.5 µg/mL (≈ 42.2 µM). In experiment [4], this compound gave a residence time above 20 min. Also, in experiment [4] (Table 3), the Slow-onset result was “Yes”. Inhibition in experiment [7] was half-maximal at 891 ± 106 nM (IC50).
`CCCCCCc1ccc(Oc2cnccc2C(=O)O)c(O)c1` [PT116, 3-(4-Hexyl-2-hydroxyphenoxy)isonicotinic acid] gave an MIC in experiment [2] (Mycobacterium tuberculosis) of 25 µg/mL (≈ 79.3 µM). Moreover, the IC50 in experiment [7] is above 12000 nM.
For `CCCCCCc1ccc(Oc2ccccc2C#N)c(O)c1` [PT119, 2-(4-Hexyl-2-hydroxyphenoxy)benzonitrile], in experiment [2] (Mycobacterium tuberculosis), inhibition of growth (MIC) required 2.5 µg/mL (≈ 8.46 µM). Further, in experiment [4], the residence time turned out to be 80 ± 12 min. In experiment [4] (setting [9]), the Slow-onset result is recorded as “Yes”. For the same compound, the “fold reduction of binding affinity compared to PT070” value in experiment [4] (ratio of Ki) is reported as ~ 50 fold.
In turn, `CCCCCCc1ccc(Oc2c(F)cccc2Cl)c(O)c1` [PT133, 2-(2-Chloro-6-fluorophenoxy)-5-hexylphenol] showed an MIC in experiment [2] (Mycobacterium tuberculosis) of 25 µg/mL (≈ 77.4 µM). Besides, in experiment [7], it took 79.7 ± 24.4 nM to reach half-maximal inhibition (IC50).
On the same counts, the results for `CCCCCCc1ccc(Oc2cncnc2N)c(O)c1` [PT134, 2-((4-Aminopyrimidin-5-yl)oxy)-5-hexylphenol] are 3.12 µg/mL (≈ 10.9 µM) and 239 ± 46.8 nM.
In experiment [2] (Mycobacterium tuberculosis), `CCCCCCc1ccc(Oc2cccnc2F)c(O)c1` [PT161, 2-((2-Fluoropyridin-3-yl)oxy)-5-hexylphenol] came in with an MIC of 0.312 µg/mL (≈ 1.08 µM). Moreover, in experiment [4] (Table 3), the Slow-onset entry is “slow-onset inhibition and Yes”. Also, the IC50 in experiment [7] was 40 ± 20 nM.
On to `CCCCCCc1ccc(Oc2cccnc2C#N)c(O)c1` [PT164, 3-(4-Hexyl-2-hydroxyphenoxy)picolinonitrile], for which, in experiment [2] (Mycobacterium tuberculosis), the MIC is below 0.39 µg/mL. Further, in experiment [4] (Table 3), the Slow-onset entry was “slow-onset inhibition and Yes”. In experiment [7], this compound displayed an IC50 of 308 ± 4.2 nM.
